Source: ChEMBL document CHEMBL4138237, “Activation of anti-oxidant Nrf2 signaling by enone analogues of curcumin” (Eur J Med Chem, 2018)
The source made the active and inactive calls.

Tests used:
[1] = target: Luciferin 4-monooxygenase (Photinus pyralis, UniProt P08659); assay: Effect on firefly luciferase activity expressed in human HepG2 cells at low concentration after 5 hrs by luminescence assay; type: ADME, cell-based; details: hepg2, 5 h
[2] = target: T1, Nuclear factor erythroid 2-related factor 2 (Homo sapiens) (UniProt Q16236); assay: Activation of Nrf2 (unknown origin) expressed in human HepG2 cells at 15 uM after 5 hrs by ARE-driven luciferase reporter gene assay relative to control; type: cell-based
T1 sequence (whole entry): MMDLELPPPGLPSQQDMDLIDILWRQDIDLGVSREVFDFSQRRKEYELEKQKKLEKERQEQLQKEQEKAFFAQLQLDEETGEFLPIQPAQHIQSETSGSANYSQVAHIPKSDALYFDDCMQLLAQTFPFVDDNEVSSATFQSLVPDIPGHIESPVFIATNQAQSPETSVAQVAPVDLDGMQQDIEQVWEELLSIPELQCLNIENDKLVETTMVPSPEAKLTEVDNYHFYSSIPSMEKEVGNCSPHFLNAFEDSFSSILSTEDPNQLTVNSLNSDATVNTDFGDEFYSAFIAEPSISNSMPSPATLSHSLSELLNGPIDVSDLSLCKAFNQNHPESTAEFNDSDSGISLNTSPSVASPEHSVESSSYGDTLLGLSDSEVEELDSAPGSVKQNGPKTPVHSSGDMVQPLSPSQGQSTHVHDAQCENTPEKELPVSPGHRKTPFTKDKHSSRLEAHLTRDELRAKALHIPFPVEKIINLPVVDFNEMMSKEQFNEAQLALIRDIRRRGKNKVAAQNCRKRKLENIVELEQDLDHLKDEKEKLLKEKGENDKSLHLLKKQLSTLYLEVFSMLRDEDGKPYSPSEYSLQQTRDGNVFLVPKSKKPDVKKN

Luciferin 4-monooxygenase, sequence (P08659 whole entry): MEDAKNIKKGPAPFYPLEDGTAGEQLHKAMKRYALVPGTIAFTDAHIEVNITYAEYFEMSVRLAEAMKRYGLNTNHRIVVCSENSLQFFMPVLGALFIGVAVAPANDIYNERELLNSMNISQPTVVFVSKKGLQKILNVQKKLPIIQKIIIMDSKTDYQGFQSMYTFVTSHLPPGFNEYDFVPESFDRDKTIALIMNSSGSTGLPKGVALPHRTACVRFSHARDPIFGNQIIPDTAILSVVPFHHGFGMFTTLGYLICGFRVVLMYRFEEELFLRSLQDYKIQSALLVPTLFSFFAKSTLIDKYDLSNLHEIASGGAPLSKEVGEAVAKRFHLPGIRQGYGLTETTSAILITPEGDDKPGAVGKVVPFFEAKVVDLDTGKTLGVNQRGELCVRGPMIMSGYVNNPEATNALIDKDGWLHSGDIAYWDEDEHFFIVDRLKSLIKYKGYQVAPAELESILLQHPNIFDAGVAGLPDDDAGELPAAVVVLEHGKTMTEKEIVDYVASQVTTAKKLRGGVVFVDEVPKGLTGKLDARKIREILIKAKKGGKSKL

fold change (FC) [2] | Activity [2] | Compound | Activity [1]
 | Active | COc1cc(/C=C/C(=O)c2ccc(O)c(OC)c2)ccc1O | Non-Toxic
18.5 |  | O=C(/C=C/c1ccccc1O)/C=C/c1ccccc1O | Non-Toxic
 | Active | O=C(/C=C/c1ccccc1Cl)/C=C/c1ccccc1Cl | Non-Toxic
 | inactive | O=C(/C=C/c1ccc(Cl)cc1)/C=C/c1ccc(Cl)cc1 | Non-Toxic
 | inactive | COc1ccc(/C=C2\CCC/C(=C\c3ccc(OC)cc3OC)C2=O)c(OC)c1 | Non-Toxic
 | inactive | Cc1ccc(/C=C/C(=O)CC(=O)/C=C/c2ccc(C)cc2)cc1 | Non-Toxic
 | Active | O=C(/C=C/c1ccccc1)c1ccccc1 [CHALCONE] | Non-Toxic
 | Active | CCc1c(/C=C/C(=O)/C=C/c2ccc(OC)c(OC)c2CC)ccc(OC)c1OC | Non-Toxic
 | inactive | O=C(/C=C/c1cccc(Cl)c1)/C=C/c1cccc(Cl)c1 | Non-Toxic

Continued, molecule first:

Compound | fold change (FC) [2] | Activity [2] | Activity [1]
COc1cc(OC)c(OC)cc1/C=C/C(=O)/C=C/c1cc(OC)c(OC)cc1OC | 18.2 |  | Non-Toxic
COc1cc(/C=C/C(=O)CC(=O)/C=C/c2cc(OC)cc(OC)c2)cc(OC)c1 |  | Active | Non-Toxic
COc1ccc(/C=C/C(=O)CC(=O)/C=C/c2ccc(OC)cc2)cc1 |  | Active | Non-Toxic
O=C(CCc1ccccc1)CCc1ccccc1 |  | inactive | Non-Toxic
O=C(/C=C/c1ccccc1)C(Cc1ccccc1)(Cc1ccccc1)C(=O)/C=C/c1ccccc1 |  | Active | Non-Toxic
COc1cc(/C=C/C(=O)/C=C/c2ccc(O)c(OC)c2)ccc1O | 25.1 |  | Non-Toxic
COc1ccc(/C=C/C(=O)CC(=O)/C=C/c2ccc(OC)c(O)c2)cc1O |  | Active | Non-Toxic
O=C(/C=C/c1ccccc1C(F)(F)F)/C=C/c1ccccc1C(F)(F)F |  | inactive | Non-Toxic
O=C(/C=C/c1c(Cl)cccc1Cl)/C=C/c1c(Cl)cccc1Cl |  | inactive | Non-Toxic
COc1cccc(/C=C/C(=O)CC(=O)/C=C/c2cccc(OC)c2)c1 |  | Active | Non-Toxic
CN1C/C(=C\c2cccc(C(F)(F)F)c2)C(=O)/C(=C/c2cccc(C(F)(F)F)c2)C1 |  | Active | Non-Toxic
COc1cc(/C=C2\CCC/C(=C\c3cc(OC)cc(OC)c3)C2=O)cc(OC)c1 | 22.1 |  | Non-Toxic
